Laboratory results: patent publication US8815918B2, “Imidazo [2, 1-B] [1, 3, 4] thiadiazole derivatives” (Centro Nacional de Investigaciones Oncologicas (CNIO), priority 2009, dated 2014)
Like-named read-outs stand apart in the source and are kept apart here.

Molecular target: PI3K (p110α/p85α) (Homo sapiens (Human), UniProt P42336)
Test: PI3K Activity Assay (ADP Hunter Plus)
Format: biochemical
Details: for inhibition at 10 µM: 10 μM compound concentration, read-out: Inhibition (%) of PI3Kα activity, Inh (%) at 10 μM
Procedure: The kinase activity was measured by using the commercial ADP Hunter™ Plus assay available from DiscoveRx (#33-016), which is a homogeneous assay to measure the accumulation of ADP, a universal product of kinase activity. The enzyme, PI3K (p110α/p85α was purchased from Carna Biosciences (#07CBS-0402A). The assay was done following the manufacturer recommendations with slight modifications: Mainly the kinase buffer was replace by 50 mM HEPES, pH 7.5, 3 mM MgCl2, 100 mM NaCl, 1 mM EGTA, 0.04% CHAPS, 2 mM TCEP and 0.01 mg/ml BGG. The PI3K was assayed in a titration experiment to determine the optimal protein concentration for the inhibition assay. To calculate the IC50 of the ETP-compounds, serial 1:5 dilutions of the compounds were added to the enzyme at a fixed concentration (2.5 μg/mL. The enzyme was preincubated with the inhibitor and 30 μM PIP2 substrate (P9763, Sigma) for 5 min and then ATP was added to a final 50 μM concentration. Reaction was carried out for 1 hour at 25° C. Reagent A and B were sequentially added to the wells and plates were incubated for 30 min at 37° C. Fluorescence counts were read in a Victor instrument (Perkin Elmer) with the recommended settings (544 and 580 nm as excitation and emission wavelengths, respectively). Values were normalized against the control activity included for each enzyme (i.e., 100% PI3 kinase activity, without compound). These values were plot against the inhibitor concentration and were fit to a sigmoid dose-response curve by using the Graphad software.

[1] = read-out: Biological activity in PI3Kα, semi-quantitative

PI3K (p110α/p85α), sequence (P42336 whole entry): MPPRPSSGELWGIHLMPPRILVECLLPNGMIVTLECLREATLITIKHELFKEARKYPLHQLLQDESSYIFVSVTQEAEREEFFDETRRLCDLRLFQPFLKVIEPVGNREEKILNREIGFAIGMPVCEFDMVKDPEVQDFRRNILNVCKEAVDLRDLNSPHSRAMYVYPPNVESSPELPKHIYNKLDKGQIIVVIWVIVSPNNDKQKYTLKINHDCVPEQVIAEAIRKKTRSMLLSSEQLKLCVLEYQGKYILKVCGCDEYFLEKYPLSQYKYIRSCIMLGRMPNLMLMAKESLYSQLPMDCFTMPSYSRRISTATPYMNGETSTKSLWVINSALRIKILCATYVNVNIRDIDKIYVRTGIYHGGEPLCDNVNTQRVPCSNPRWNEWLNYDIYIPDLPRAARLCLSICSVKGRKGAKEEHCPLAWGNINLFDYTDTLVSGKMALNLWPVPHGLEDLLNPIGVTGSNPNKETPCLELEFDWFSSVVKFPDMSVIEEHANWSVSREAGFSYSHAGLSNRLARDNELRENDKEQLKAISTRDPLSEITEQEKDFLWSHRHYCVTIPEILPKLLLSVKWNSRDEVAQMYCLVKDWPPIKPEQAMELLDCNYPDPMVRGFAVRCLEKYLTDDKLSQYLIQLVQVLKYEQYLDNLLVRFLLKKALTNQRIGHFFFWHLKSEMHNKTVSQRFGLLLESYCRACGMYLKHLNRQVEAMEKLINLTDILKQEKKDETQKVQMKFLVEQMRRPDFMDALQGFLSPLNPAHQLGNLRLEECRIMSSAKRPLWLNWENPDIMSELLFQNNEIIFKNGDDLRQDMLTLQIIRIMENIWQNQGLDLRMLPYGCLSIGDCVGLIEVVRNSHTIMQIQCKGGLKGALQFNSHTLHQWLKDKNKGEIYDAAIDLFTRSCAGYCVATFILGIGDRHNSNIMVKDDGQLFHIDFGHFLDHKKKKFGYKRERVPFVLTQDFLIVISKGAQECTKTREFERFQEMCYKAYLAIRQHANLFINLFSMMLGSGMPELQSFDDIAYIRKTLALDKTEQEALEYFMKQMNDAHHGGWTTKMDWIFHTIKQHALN
PI3K (p110α/p85α), sequence (P27986 whole entry partner): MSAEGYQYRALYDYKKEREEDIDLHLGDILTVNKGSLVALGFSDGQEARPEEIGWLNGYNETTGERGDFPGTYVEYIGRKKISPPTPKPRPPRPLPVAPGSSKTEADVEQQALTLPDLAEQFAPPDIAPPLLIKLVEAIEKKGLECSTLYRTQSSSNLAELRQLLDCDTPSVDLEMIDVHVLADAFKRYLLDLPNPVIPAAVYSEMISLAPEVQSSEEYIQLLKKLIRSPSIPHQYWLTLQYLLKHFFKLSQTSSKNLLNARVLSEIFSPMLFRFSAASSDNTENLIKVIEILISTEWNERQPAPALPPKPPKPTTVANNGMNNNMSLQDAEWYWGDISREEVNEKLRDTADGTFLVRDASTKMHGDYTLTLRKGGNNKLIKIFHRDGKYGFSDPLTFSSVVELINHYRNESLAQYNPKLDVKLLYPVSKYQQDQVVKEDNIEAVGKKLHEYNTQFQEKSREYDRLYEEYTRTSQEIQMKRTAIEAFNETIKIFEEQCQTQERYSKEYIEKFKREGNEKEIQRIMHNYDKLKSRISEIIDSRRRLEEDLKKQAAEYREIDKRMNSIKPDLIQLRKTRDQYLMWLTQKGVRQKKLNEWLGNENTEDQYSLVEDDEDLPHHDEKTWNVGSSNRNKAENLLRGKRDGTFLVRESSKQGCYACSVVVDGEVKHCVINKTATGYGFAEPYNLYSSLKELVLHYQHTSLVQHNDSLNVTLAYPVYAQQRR

SMILES	IC50 [1] [µM]	inhibition at 10 µM [%]	IC50 (read-out: IC50 [μM] PI3Kα) [µM]
COc1ccc(-c2nn3c(-c4cnc([S+](C)[O-])nc4)cnc3s2)cc1OC (stereo not drawn) [Example 25, 2-(3,4-Dimethoxy-phenyl)-5-(2-mthanesulfinyl-pyrimidin-5-yl) -imidazo[2,1-b][1,3,4]thiadiazole]	0.1 to 1	–	–
COc1ccc(-c2nn3c(-c4cnc(NCCN(C)C)nc4)cnc3s2)cc1OC [Example 26, N′-{5-[2-(3,4-Dimethoxy-phenyl)-imidazo[2,1-b][1,3,4]thiadiazol-5-yl]-pyrimidin-2-yl}-N,N-dimethyl-ethane-1,2-diamine]	0.1 to 1	–	–
COc1cncc(-c2cnc3sc(-c4ccc(OC)c(OC)c4)nn23)c1 [Example 27, 2-(3,4-dimethoxyphenyl)-5-(5-methoxypyridin-3-yl)imidazo[2,1-b][1,3,4]thiadiazole]	< 0.1	99	–
COc1cccc(-c2nn3c(-c4cnc(N)c(C(F)(F)F)c4)cnc3s2)c1 [Example 28, 5-[2-(3-Methoxy-phenyl)-imidazo[2,1-b][1,3,4]thiadiazol-5-yl]-3-trifluoromethyl-pyridin-2-ylamine]	0.1 to 1	–	–
N#Cc1cccc(-c2nn3c(-c4cnc(N)c(C(F)(F)F)c4)cnc3s2)c1 [Example 29, 3-[5-(6-Amino-5-trifluoromethyl-pyridin-3-yl)-imidazo[2,1-b][1,3,4]thiadiazol-2-yl]-benzonitrile]	< 0.1	–	–
COc1ccc(-c2nn3c(-c4cnc(N)c(C(F)(F)F)c4)cnc3s2)cc1 [Example 30, 5-[2-(4-Methoxy-phenyl)-imidazo[2,1-b][1,3,4]thiadiazol-5-yl]-3-trifluoromethyl-pyridin-2-ylamine]	0.1 to 1	–	0.454
CS(=O)(=O)Nc1cccc(-c2nn3c(-c4cnc(N)c(C(F)(F)F)c4)cnc3s2)c1 [Example 31, N-{3-[5-(6-Amino-5-trifluoromethyl-pyridin-3-yl)-imidazo[2,1-b][1,3,4]thiadiazol-2-yl]-phenyl}-methanesulfonamide]	< 0.1	–	–
Nc1ncc(-c2cnc3sc(-c4cccnc4)nn23)cc1C(F)(F)F [Example 32, 5-(2-Pyridin-3-yl-imidazo[2,1-b][1,3,4]thiadiazol-5-yl)-3-trifluoromethyl-pyridin-2-ylamine]	< 0.1	–	–
N#Cc1ccc(-c2nn3c(-c4cnc(N)c(C(F)(F)F)c4)cnc3s2)cc1 [Example 33, 4-[5-(6-Amino-5-trifluoromethyl-pyridin-3-yl)-imidazo[2,1-b][1,3,4]thiadiazol-2-yl]-benzonitrile]	0.1 to 1	–	–
CS(=O)(=O)NCc1cccc(-c2nn3c(-c4cnc(N)c(C(F)(F)F)c4)cnc3s2)c1 [Example 34, N-{3-[5-(6-Amino-5-trifluoromethyl-pyridin-3-yl)-imidazo[2,1-b][1,3,4]thiadiazol-2-yl]-benzyl}-methanesulfonamide]	< 0.1	–	–
NC(=O)c1cccc(-c2nn3c(-c4cnc(N)c(C(F)(F)F)c4)cnc3s2)c1 [Example 35, 3-[5-(6-Amino-5-trifluoromethyl-pyridin-3-yl)-imidazo[2,1-b][1,3,4]thiadiazol-2-yl]-benzamide]	< 0.1	–	–
CCn1cc(-c2nn3c(-c4cnc(N)c(C(F)(F)F)c4)cnc3s2)cn1 [Example 36, 5-[2-(1-Ethyl-1H-pyrazol-4-yl)-imidazo[2,1-b][1,3,4]thiadiazol-5-yl]-3-trifluoromethyl-pyridin-2-ylamine]	< 0.1	–	0.095
Cc1ccncc1-c1nn2c(-c3cnc(N)c(C(F)(F)F)c3)cnc2s1 [Example 37, 5-[2-(4-Methyl-pyridin-3-yl)-imidazo[2,1-b][1,3,4]thiadiazol-5-yl]-3-trifluoromethyl-pyridin-2-ylamine]	< 0.1	–	–
CC(C)(C)OC(=O)N1CCC2(CC1)C(=O)Nc1ccc(-c3nn4c(-c5cnc(N)c(C(F)(F)F)c5)cnc4s3)cc12 [Example 38, 5-[2-(1′-(tert-butoxycarbonyl)-2-oxo-1,2-dihydrospiro[indole-3,4′-piperidine]-5-yl)-imidazo[2,1-b][1,3,4]thiadiazol-5-yl]-3-trifluoromethyl-pyridin-2-ylamine]	1 to 50	–	–
Nc1ncc(-c2cnc3sc(-c4ccc5c(c4)C4(CCNCC4)C(=O)N5)nn23)cc1C(F)(F)F [Example 39, 5-[2-(2-oxo-1,2-dihydrospiro[indole-3,4′-piperidine]-5-yl)-imidazo[2,1-b][1,3,4]thiadiazol-5-yl]-3-trifluoromethyl-pyridin-2-ylamine]	< 0.1	–	–
Nc1ncc(-c2cnc3sc(-c4ccc5[nH]ccc5c4)nn23)cc1C(F)(F)F [Example 40, 5-[2-(1H-Indol-5-yl)-imidazo[2,1-b][1,3,4]thiadiazol-5-yl]-3-trifluoromethyl-pyridin-2-ylamine]	0.1 to 1	–	0.676
CS(=O)(=O)c1cccc(-c2nn3c(-c4cnc(N)c(C(F)(F)F)c4)cnc3s2)c1 [Example 41, 5-[2-(3-Methanesulfonyl-phenyl)-imidazo[2,1-b][1,3,4]thiadiazol-5-yl]-3-trifluoromethyl-pyridin-2-ylamine]	< 0.1	–	0.05
CN(C)c1cccc(-c2nn3c(-c4cnc(N)c(C(F)(F)F)c4)cnc3s2)c1 [Example 42, 5-[2-(3-Dimethylamino-phenyl)-imidazo[2,1-b][1,3,4]thiadiazol-5-yl]-3-trifluoromethyl-pyridin-2-ylamine]	0.1 to 1	–	–
Cc1ccc(-c2nn3c(-c4cnc(N)c(C(F)(F)F)c4)cnc3s2)cn1 [Example 43, 5-[2-(6-Methyl-pyridin-3-yl)-imidazo[2,1-b][1,3,4]thiadiazol-5-yl]-3-trifluoromethyl-pyridin-2-ylamine]	< 0.1	–	0.062
Nc1ncc(-c2cnc3sc(-c4ccc(S(=O)(=O)N5CCOCC5)cc4)nn23)cc1C(F)(F)F [Example 44, 5-{2-[4-(Morpholine-4-sulfonyl)-phenyl]-imidazo[2,1-b][1,3,4]thiadiazol-5-yl}-3-trifluoromethyl-pyridin-2-ylamine]	0.1 to 1	–	–
Nc1ncc(-c2cnc3sc(-c4cccc(S(=O)(=O)N5CCOCC5)c4)nn23)cc1C(F)(F)F [Example 45, 5-{2-[3-(Morpholine-4-sulfonyl)-phenyl]-imidazo[2,1-b][1,3,4]thiadiazol-5-yl}-3-trifluoromethyl-pyridin-2-ylamine]	0.1 to 1	–	0.437
CC(=O)Nc1cccc(-c2nn3c(-c4cnc(N)c(C(F)(F)F)c4)cnc3s2)c1 [Example 46, N-{3-[5-(6-Amino-5-trifluoromethyl-pyridin-3-yl)-imidazo[2,1-b][1,3,4]thiadiazol-2-yl]-phenyl}-acetamide]	< 0.1	–	–
COc1cncc(-c2nn3c(-c4cnc(N)c(C(F)(F)F)c4)cnc3s2)c1 [Example 47, 5-[2-(5-Methoxy-pyridin-3-yl)-imidazo[2,1-b][1,3,4]thiadiazol-5-yl]-3-trifluoromethyl-pyridin-2-ylamine]	< 0.1	–	0.021
CS(=O)(=O)c1ccc(-c2cnc3sc(-c4cnc(N)c(C(F)(F)F)c4)nn23)cc1 [Example 49, 5-[5-(4-Methanesulfonyl-phenyl)-imidazo[2,1-b][1,3,4]thiadiazol-2-yl]-3-trifluoromethyl-pyridin-2-ylamine]	< 0.1	–	–
Nc1ncc(-c2nn3c(-c4ccc(F)nc4)cnc3s2)cc1C(F)(F)F [Example 50, 5-[5-(6-Fluoro-pyridin-3-yl)-imidazo[2,1-b][1,3,4]thiadiazol-2-yl]-3-trifluoromethyl-pyridin-2-ylamine]	0.1 to 1	97	–
COC(=O)c1ccc(-c2cnc3sc(-c4cnc(N)c(C(F)(F)F)c4)nn23)cc1OC [Example 51, 4-[2-(6-Amino-5-trifluoromethyl-pyridin-3-yl)-imidazo[2,1-b][1,3,4]thiadiazol-5-yl]-2-methoxy-benzoic acid methyl ester]	< 0.1	–	0.018
